{
  "source": "ChEMBL document CHEMBL1255301",
  "about": "“Activity of Tigecycline against Coryneform Bacteria of Clinical Interest and Listeria monocytogenes” (2008)",
  "format_in_all_cases": "functional",
  "key": {"[1]": {"test_system": "Corynebacterium jeikeium", "assay": "Antimicrobial activity against Corynebacterium jeikeium isolates by CLSI M45-A protocol based microdilution method"}, "[2]": {"test_system": "Corynebacterium urealyticum", "assay": "Antimicrobial activity against Corynebacterium urealyticum isolates by CLSI M45-A protocol based microdilution method"}, "[3]": {"test_system": "Arcanobacterium haemolyticum", "assay": "Antimicrobial activity against Arcanobacterium haemolyticum isolates by CLSI M45-A protocol based microdilution method"}, "[4]": {"test_system": "Corynebacterium amycolatum", "assay": "Antimicrobial activity against Corynebacterium amycolatum isolates by CLSI M45-A protocol based microdilution method"}, "[5]": {"test_system": "Corynebacterium pseudodiphtheriticum", "assay": "Antimicrobial activity against Corynebacterium pseudodiphtheriticum isolates by CLSI M45-A protocol based microdilution method"}, "[6]": {"test_system": "Corynebacterium minutissimum", "assay": "Antimicrobial activity against Corynebacterium minutissimum isolates by CLSI M45-A protocol based microdilution method"}, "[7]": {"test_system": "Prescottella equi", "assay": "Antimicrobial activity against Rhodococcus equi isolates by CLSI M45-A protocol based microdilution method"}, "[8]": {"test_system": "Listeria monocytogenes", "assay": "Antimicrobial activity against Listeria monocytogenes isolates by CLSI M45-A protocol based microdilution method"}, "[9]": {"test_system": "Corynebacterium xerosis", "assay": "Antimicrobial activity against Corynebacterium xerosis isolates by CLSI M45-A protocol based microdilution method"}, "[10]": {"test_system": "Corynebacterium striatum", "assay": "Antimicrobial activity against Corynebacterium striatum isolates by CLSI M45-A protocol based microdilution method"}, "[11]": {"conditions": "Rhodococcus (subgen. Prescottella) equi"}},
  "data": [
    {"molecule": "CN(C)c1cc(NC(=O)CNC(C)(C)C)c(O)c2c1C[C@H]1C[C@H]3[C@H](N(C)C)C(O)=C(C(N)=O)C(=O)[C@@]3(O)C(O)=C1C2=O", "note": "[TIGECYCLINE]", "values": [
      {"measurement": "MIC", "setting": "[1]", "result": "≤ 0.015", "unit": "µg/mL"},
      {"measurement": "MIC50", "setting": "[1]", "result": "≤ 0.015", "unit": "µg/mL"},
      {"measurement": "MIC90", "setting": "[1]", "result": 0.03, "unit": "µg/mL"},
      {"measurement": "MIC50", "setting": "[2]", "result": 0.03, "unit": "µg/mL"},
      {"measurement": "MIC90", "setting": "[2]", "result": 0.06, "unit": "µg/mL"},
      {"measurement": "MIC", "setting": "[3]", "result": "≤ 0.015", "unit": "µg/mL"},
      {"measurement": "MIC50", "setting": "[3]", "result": "≤ 0.015", "unit": "µg/mL"},
      {"measurement": "MIC90", "setting": "[3]", "result": "≤ 0.015", "unit": "µg/mL"},
      {"measurement": "MIC50", "setting": "[4]", "result": 0.125, "unit": "µg/mL"},
      {"measurement": "MIC90", "setting": "[4]", "result": 0.25, "unit": "µg/mL"},
      {"measurement": "MIC", "setting": "[5]", "result": "≤ 0.015", "unit": "µg/mL"},
      {"measurement": "MIC50", "setting": "[5]", "result": "≤ 0.015", "unit": "µg/mL"},
      {"measurement": "MIC90", "setting": "[5]", "result": 0.03, "unit": "µg/mL"},
      {"measurement": "MIC", "setting": "[6]", "result": "≤ 0.003", "unit": "µg/mL"},
      {"measurement": "MIC50", "setting": "[6]", "result": "≤ 0.015", "unit": "µg/mL"},
      {"measurement": "MIC50", "setting": "[7]; [11]", "result": 0.25, "unit": "µg/mL"},
      {"measurement": "MIC90", "setting": "[7]; [11]", "result": 0.5, "unit": "µg/mL"},
      {"measurement": "MIC50", "setting": "[8]", "result": 0.06, "unit": "µg/mL"},
      {"measurement": "MIC90", "setting": "[8]", "result": 0.125, "unit": "µg/mL"},
      {"measurement": "MIC50", "setting": "[9]", "result": 0.125, "unit": "µg/mL"},
      {"measurement": "MIC50", "setting": "[10]", "result": 0.5, "unit": "µg/mL"},
      {"measurement": "MIC90", "setting": "[10]", "result": 1, "unit": "µg/mL"}
    ]},
    {"molecule": "CN(C)c1ccc(O)c2c1C[C@H]1C[C@H]3[C@H](N(C)C)C(O)=C(C(N)=O)C(=O)[C@@]3(O)C(O)=C1C2=O", "note": "[MINOCYCLINE]", "values": [
      {"measurement": "MIC", "setting": "[1]", "result": 0.06, "unit": "µg/mL"},
      {"measurement": "MIC50", "setting": "[1]", "result": 0.06, "unit": "µg/mL"},
      {"measurement": "MIC90", "setting": "[1]", "result": 0.25, "unit": "µg/mL"},
      {"measurement": "MIC50", "setting": "[2]", "result": 0.06, "unit": "µg/mL"},
      {"measurement": "MIC90", "setting": "[2]", "result": 0.5, "unit": "µg/mL"},
      {"measurement": "MIC", "setting": "[3]", "result": "≤ 0.03", "unit": "µg/mL"},
      {"measurement": "MIC50", "setting": "[3]", "result": "≤ 0.03", "unit": "µg/mL"},
      {"measurement": "MIC90", "setting": "[3]", "result": 4, "unit": "µg/mL"},
      {"measurement": "MIC50", "setting": "[4]", "result": 0.06, "unit": "µg/mL"},
      {"measurement": "MIC90", "setting": "[4]", "result": 0.25, "unit": "µg/mL"},
      {"measurement": "MIC50", "setting": "[5]", "result": 0.06, "unit": "µg/mL"},
      {"measurement": "MIC90", "setting": "[5]", "result": 0.06, "unit": "µg/mL"},
      {"measurement": "MIC", "setting": "[6]", "result": "≤ 0.03", "unit": "µg/mL"},
      {"measurement": "MIC50", "setting": "[6]", "result": "≤ 0.03", "unit": "µg/mL"},
      {"measurement": "MIC50", "setting": "[7]; [11]", "result": 0.25, "unit": "µg/mL"},
      {"measurement": "MIC90", "setting": "[7]; [11]", "result": 0.25, "unit": "µg/mL"},
      {"measurement": "MIC50", "setting": "[8]", "result": 0.06, "unit": "µg/mL"},
      {"measurement": "MIC90", "setting": "[8]", "result": 0.06, "unit": "µg/mL"},
      {"measurement": "MIC50", "setting": "[9]", "result": 0.25, "unit": "µg/mL"},
      {"measurement": "MIC50", "setting": "[10]", "result": 4, "unit": "µg/mL"},
      {"measurement": "MIC90", "setting": "[10]", "result": 8, "unit": "µg/mL"}
    ]},
    {"molecule": "CN(C)[C@@H]1C(O)=C(C(N)=O)C(=O)[C@@]2(O)C(O)=C3C(=O)c4c(O)cccc4[C@@](C)(O)[C@H]3C[C@@H]12", "note": "[TETRACYCLINE]", "values": [
      {"measurement": "MIC", "setting": "[1]", "result": 0.06, "unit": "µg/mL"},
      {"measurement": "MIC50", "setting": "[1]", "result": 0.06, "unit": "µg/mL"},
      {"measurement": "MIC50", "setting": "[2]", "result": 0.25, "unit": "µg/mL"},
      {"measurement": "MIC90", "setting": "[2]", "result": 16, "unit": "µg/mL"},
      {"measurement": "MIC50", "setting": "[3]", "result": 0.125, "unit": "µg/mL"},
      {"measurement": "MIC90", "setting": "[3]", "result": 16, "unit": "µg/mL"},
      {"measurement": "MIC50", "setting": "[4]", "result": 0.125, "unit": "µg/mL"},
      {"measurement": "MIC90", "setting": "[4]", "result": 0.5, "unit": "µg/mL"},
      {"measurement": "MIC50", "setting": "[5]", "result": 0.125, "unit": "µg/mL"},
      {"measurement": "MIC90", "setting": "[5]", "result": 0.25, "unit": "µg/mL"},
      {"measurement": "MIC50", "setting": "[6]", "result": 0.25, "unit": "µg/mL"},
      {"measurement": "MIC50", "setting": "[7]; [11]", "result": 8, "unit": "µg/mL"},
      {"measurement": "MIC90", "setting": "[7]; [11]", "result": 8, "unit": "µg/mL"},
      {"measurement": "MIC50", "setting": "[8]", "result": 0.5, "unit": "µg/mL"},
      {"measurement": "MIC90", "setting": "[8]", "result": 0.5, "unit": "µg/mL"},
      {"measurement": "MIC50", "setting": "[9]", "result": 0.5, "unit": "µg/mL"},
      {"measurement": "MIC50", "setting": "[10]", "result": 16, "unit": "µg/mL"},
      {"measurement": "MIC90", "setting": "[10]", "result": "> 32", "unit": "µg/mL"}
    ]},
    {"molecule": "GENTAMICIN", "values": [
      {"measurement": "MIC50", "setting": "[1]", "result": "> 32", "unit": "µg/mL"},
      {"measurement": "MIC90", "setting": "[1]", "result": "> 32", "unit": "µg/mL"},
      {"measurement": "MIC50", "setting": "[2]", "result": "> 32", "unit": "µg/mL"},
      {"measurement": "MIC90", "setting": "[2]", "result": "> 32", "unit": "µg/mL"},
      {"measurement": "MIC50", "setting": "[3]", "result": 0.5, "unit": "µg/mL"},
      {"measurement": "MIC90", "setting": "[3]", "result": 0.5, "unit": "µg/mL"},
      {"measurement": "MIC50", "setting": "[4]", "result": 8, "unit": "µg/mL"},
      {"measurement": "MIC90", "setting": "[4]", "result": 16, "unit": "µg/mL"},
      {"measurement": "MIC50", "setting": "[5]", "result": 0.06, "unit": "µg/mL"},
      {"measurement": "MIC90", "setting": "[5]", "result": 0.06, "unit": "µg/mL"},
      {"measurement": "MIC", "setting": "[6]", "result": "< 0.03", "unit": "µg/mL"},
      {"measurement": "MIC50", "setting": "[6]", "result": 0.06, "unit": "µg/mL"},
      {"measurement": "MIC50", "setting": "[7]", "result": 0.5, "unit": "µg/mL"},
      {"measurement": "MIC90", "setting": "[7]", "result": 1, "unit": "µg/mL"},
      {"measurement": "MIC50", "setting": "[8]", "result": 0.25, "unit": "µg/mL"},
      {"measurement": "MIC90", "setting": "[8]", "result": 0.125, "unit": "µg/mL"},
      {"measurement": "MIC", "setting": "[9]", "result": "< 0.03", "unit": "µg/mL"},
      {"measurement": "MIC50", "setting": "[9]", "result": 8, "unit": "µg/mL"},
      {"measurement": "MIC50", "setting": "[10]", "result": 2, "unit": "µg/mL"},
      {"measurement": "MIC90", "setting": "[10]", "result": 8, "unit": "µg/mL"}
    ]}
  ]
}
